The results in this text go back to patent publication EP0435221A2, “New benzanthracene compound and a process for preparing the same” (HOECHST JAPAN LIMITED, priority 1989, dated 1991).

The assay concerns mouse leukemia L-1210 cells. In words: inhibitory effect on the proliferation of mouse leukemia L-1210 cells. In kind it is cell-based. Conditions: L1210; 50% inhibitory concentration; proliferation of mouse leukemia L-1210 cells (1 x 10⁶ cells/ml). Here is the method: Compound 683 of the present invention, as well as the structurally related X-14881 D, was tested for inhibitory effect on the proliferation of mouse leukemia L-1210 cells(1 x 10⁶ cells/ml). The 50% inhibitory concentration values thereof are as follows.

Each structure is given as a SMILES string. In brackets after ≈: the same amount, converted by molar mass.

One may read the IC50 as the concentration that gives 50% inhibition. The molecule `COc1cccc2c1C(O)C13C=CC4=C(C(=O)CC(C)C4O)C1(O3)C2O` (centres unmarked) [Compound 683] registered an IC50 of 3 µg/mL (≈ 8.42 µM).
To `COc1cccc2c1C(O)C1(O)C=CC3=C(C(=O)CC(C)C3O)C1C2O` (centres unmarked) [X-14881 D] belongs greater than 100 µg/mL.
